Source: ChEMBL document CHEMBL1127957, “Synthesis and glutamate antagonist activity of 4-phosphonoalkylquinoline derivatives: A novel class of non-NMDA antagonist” (Bioorg Med Chem Lett, 1994)

Assays:
[1] = Tested for its ability to displace [3H]glutamate from NMDA receptor
[2] = Displacement of [3H]CNQX from Ionotropic glutamate receptor kainate/Ionotropic glutamate receptor AMPA in rat cortical membranes; assay type: cell membranes, Membrane
[3] = molecular target: Glutamate receptor ionotropic, NMDA 1 (Rattus norvegicus, UniProt P35439); assay: Binding affinity at glycine co-agonist site of rat NMDA receptor
[4] = species on record: Rattus norvegicus; assay: Compound was tested for its ability to inhibit kainic acid (KA)-induced inward currents in Xenopus oocytes injected with poly {A+) mRNA from rats; assay type: functional
[5] = species on record: Rattus norvegicus; assay: Compound was tested for the ability to inhibit kainic acid (KA)-induced inward currents in Xenopus oocytes injected with poly {A+) mRNA from rats; assay type: functional

IC50 [1] [µM]	IC50 [2] [µM]	IC50 [3] [µM]	Ki [4] [µM]	Ki [5] [µM]	SMILES
> 300	7.3	81	3.5		NC(Cc1cc(I)ccc1CCP(=O)(O)O)C(=O)O (stereo unspecified)
> 1000	> 1000	> 1000		> 300	O=[N+]([O-])c1c(Cl)ccc2nc(O)cc(CP(=O)(O)O)c12
30	59	10		32	O=P(O)(O)Cc1cc(O)nc2cc(Cl)ccc12
> 300		> 1000		> 1000	O=P(O)(O)c1cc(O)nc2cc(Cl)ccc12
600	91				O=P(O)(O)CCc1cc(O)nc2cc(Cl)ccc12
> 100	26	29		18.2	O=P(O)(O)Cc1cc(O)nc2cc(Cl)cc(Cl)c12
> 1000	384	> 1000		450	O=C(O)c1cc(CCP(=O)(O)O)c2ccc(Cl)cc2n1
> 1000	300	> 1000			O=[N+]([O-])c1c(Cl)ccc2c(CP(=O)(O)O)cc(O)nc12
	61	69		132	O=C(O)c1cc(CP(=O)(O)O)c2ccc(Cl)cc2n1
> 100	15	79		9.6	O=P(O)(O)Cc1cc(O)nc2cc(Cl)c(Cl)cc12
35	35	37		15.6	O=P(O)(O)Cc1cc(O)nc2cc(I)ccc12
	0.13	7.9			N#Cc1cc2c(cc1[N+](=O)[O-])=NC(=O)C(=O)N=2
